Assays:
obese ob/ob mouse = assay: Effect on food intake and weight development in the obese mouse; format: in vivo; settings: female ob/ob C57B1/6J mice; for Food intake % variation (D1), Treated: D1, compared with the basal food intake; for Body weight % variation (D4/D0): between first and last day of treatment
Protocol: The compounds of the invention were administered in vivo to the obese ob/ob mouse in order to evaluate their influence on food intake and weight development. The animals used are 13- to 18-week-old female ob/ob C57B1/6J mice. They are divided into groups each comprising 4 animals per cage, the cages being fitted with a grating floor, and the mice having free access to food.
Before the experiments, the animals are conditioned for a period ranging from 2 to 3 weeks until their food consumption has stabilised. The experiments may be summarised as follows:
The test compounds are dissolved, immediately before use, in water, 0.9% sodium chloride, propylene glycol or dimethyl sulphoxide, depending upon their solubility, and are administered intraperitoneally (IP), in a volume of 2.5 ml/kg.
The parameters measured are the food intake and the body weight.
The results are expressed as: […]
percentage variation in food intake under treatment compared with the basal food intake;
percentage variation in body weight between the first and last day of treatment.

Y5 receptor = target: T1, Y5 receptor (Homo sapiens, UniProt Q15761); assay: In vitro affinity for NPY receptors, [125I]-PYY competition binding, Y5 receptor; settings: radioligand [125I]-PYY 15 to 65 pM
T1 sequence (Q15761 1-445): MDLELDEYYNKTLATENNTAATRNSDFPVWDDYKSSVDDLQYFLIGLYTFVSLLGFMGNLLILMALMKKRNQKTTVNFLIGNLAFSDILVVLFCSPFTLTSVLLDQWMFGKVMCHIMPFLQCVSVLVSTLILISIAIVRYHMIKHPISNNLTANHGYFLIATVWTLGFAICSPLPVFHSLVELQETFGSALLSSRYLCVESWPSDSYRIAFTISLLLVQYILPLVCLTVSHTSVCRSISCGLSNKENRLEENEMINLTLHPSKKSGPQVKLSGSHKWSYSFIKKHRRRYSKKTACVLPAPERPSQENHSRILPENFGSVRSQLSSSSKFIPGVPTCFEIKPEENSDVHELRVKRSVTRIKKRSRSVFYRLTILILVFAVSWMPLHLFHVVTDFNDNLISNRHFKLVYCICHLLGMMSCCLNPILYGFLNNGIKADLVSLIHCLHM
Protocol: The capacity of the compounds of the invention to bind to NPY receptors was measured on various cell lines, each expressing one of the receptor sub-types studied. Competition binding experiments were carried out using the peptide [^125I]-PYY as radioligand at concentrations ranging from 15 to 65 pM. The non-specific fraction is measured in the presence of a concentration of 1 μM NPY. The cells are incubated for a period ranging from 1 to 2 hours depending upon the lines, and the radioactivity is collected after filtration over a GF/C filter treated with 0.1% PEI, before being measured.

IC50 (Y5 receptor)	SMILES	Food intake % variation (D1), Treated (obese ob/ob mouse; 1 mg/kg IP twice daily)	Body weight % variation (D4/D0) (obese ob/ob mouse; 1 mg/kg IP twice daily)	Food intake % variation (D1), Treated (obese ob/ob mouse; 5 mg/kg IP twice daily)	Body weight % variation (D4/D0) (obese ob/ob mouse; 5 mg/kg IP twice daily)
0.08 µM	O=C(NNS(=O)(=O)c1ccccc1)c1ccc(Nc2nc(-c3ccccc3)n(-c3cccc(C(F)(F)F)c3)n2)cc1 [Example 1, N′-[4-({5-Phenyl-1-[3-(trifluoromethyl)phenyl]-1H-1,2,4-triazol-3-yl}-amino)benzoyl]benzenesulphonohydrazide]	−45%	−6.4%		
0.007 µM	COc1ccc(S(=O)(=O)NNC(=O)c2ccc(Nc3nc(-c4ccccc4)n(-c4cccc(C(F)(F)F)c4)n3)cc2)cc1 [Example 6]			−34%	−11.2%

From patent US6596749B2, “Aminotriazole compounds” (Les Laboratoires Servier, priority 1999, dated 2003)
